From patent US20230091310A1, “Inhibitor of Fertilized Egg Fragmentation” (priority 2019, published 2023) come the findings set out here.

The structures appear in SMILES notation.

For assay [1], the system named is eggs. As to the kind of experiment: Oxidative stress test (ROS/RNS Detection Kit) in eggs. The format is cell-based, mouse. Particulars: 1 μM each; 15 hours on hot plate; vs vehicle (0.1% DMSO). The protocol: Mouse cumulus cells-egg masses harvested by the method of Example 3 were stored in TYH medium and the cumulus cells were removed by 300 μg/mL hyaluronidase treatment to recover the eggs alone. TYH medium containing 1 μM selenoneine (SeN), TYH medium containing 1 μM ergothioneine (Erg) and TYH medium containing 1 μM ergothioneine and 1 μM ebselen (Tokyo Kasei Kogyo Co., Ltd.) (Erg+Eb) were prepared and incubated on a hot plate set to 37° C. As a control, a TYH medium (vehicle) containing the DMSO (0.1%) used to dissolve the ebselen was used. The collected eggs were transferred to incubated selenoneine-containing TYH medium and cultured under shielding for 15 hours. The reagent of a ReOIS-ID ROS/RNS Detection Kit (product of Enzo Co.) was added to the medium containing the cultured eggs, according to the manufacturer's protocol. DAPI (Wako Pure Chemical Industries, Ltd.) had already been separately added to stain the nuclei. The nuclei (DAPI) and the reactive oxygen species (ROS), reactive nitrogen species (RNS) and superoxides in the eggs were observed under a fluorescent microscope (FIG. 8A). The fluorescence intensity was calculated and graphed (FIGS. 8B to D).

The subject of assay [2] is fertilized eggs. As to the kind of experiment: Fertilized egg fragmentation after treatment of sperm, in vitro fertilization. Format: cell-based, mouse (C57BL/6 J line). Particulars: sperm incubated 6 h with 100 nM, 24 h after fertilization; for fragmented embryos: vs untreated control. The protocol:
In the same manner as Example 2, sperm incubated for 6 hours in selenoneine-containing TYH medium (final concentration: 100 nM) were separated off with the medium and washed with TYH medium that had been previously incubated at 37° C. in a 5% CO2 atmosphere, after which the washed sperm were separated off and added to TYH medium containing cumulus cells-egg masses. After 24 hours had passed, the fertilization rate was measured and the numbers of normal 2-cell stage embryos and fragmented embryos were counted. For measurement of the fertilization rate, second polar body release and the presence or absence of cell nuclei in the split bodies of each of the 2-cell stage embryos were visually observed in the bright field of a stereomicroscope, and normal 2-cell stage embryos and fragmented embryos were likewise observed in the bright field of a stereomicroscope.
The inhibiting effect of ergothioneine treatment on fragmentation of fertilized eggs was examined in the same manner as the selenoneine treatment of sperm in Example 3, but using commercially available ergothioneine (final concentration: 100 nM) instead of selenoneine (FIG. 5). No difference in the proportion of 2-cell stage embryos was found between the ergothioneine treatment and selenoneine treatment (FIG. 5A).

For assay [3], the system named is mouse sperm. As to the kind of experiment: Sperm membrane protection (propidium iodide / Hoechst 33342 staining). The format is cell-based, mouse (C57BL/6 J line). As for the experimental part:
(§1) A sperm mass harvested from the epididymis of an 8- to 12-week-old sexually matured male mouse (C57BL/6 J line) was transferred to a drop prepared in the TYH medium. It was then returned to the plastic dish in the incubator and allowed to stand for 1 hour. After standing for 1 hour, the selenoneine prepared in Example 1 was added to a drop of sperm-containing fertilization medium to final concentrations of 10 nM, 1 μM and 100 μM (or was not added for the control), and the mixture was cultured in an incubator for 3 hours, 6 hours and 9 hours, after which the sperm were obtained. The sperm were also obtained before culturing (0 h). The nuclei of obtained sperm were stained with 2 μg/mL of propidium iodide (PI: Sigma-Aldrich Japan, KK.) and 16.2 μM of Hoechst AG 33342 (Hoechst3342: Invitrogen Corp.), and observed under a fluorescent microscope (FIG. 9A). The number of sperm whose nuclei were unstained with propidium iodide was divided by the number of sperm whose nuclei were stained with Hoechst AG, to calculate the proportion of sperm which retained membranes (FIG. 9B).
Hoechst AG is cell membrane-permeable and can stain all sperm nuclei, whereas propidium iodide is membrane-impermeable and can only stain the nuclei of dead sperm or sperm that have damaged membranes. Therefore, the number of sperm whose nuclei were not stained with propidium iodide but were stained only by Hoechst AG represents the number of normal sperm which retained their membranes.
as §1, with “(Hoechst3342: distributed by” for “(Hoechst3342:”, “microscope.” for “microscope (FIG. 9A).”, “9C).” for “9B).”

The subject of assay [4] is eggs. As to the kind of experiment: Stress-induced egg fragmentation (hot plate culturing). Format: cell-based, mouse. Particulars: hot plate 37° C.; for egg fragmentation: after 21 and 24 hours of culturing. As for the experimental part: (§2) Mouse cumulus cells-egg masses harvested by the method of Example 3 were stored in TYH medium and the cumulus cells were removed by 300 μg/mL hyaluronidase treatment to recover the eggs alone. TYH medium was prepared with selenoneine at 10 nM, 100 nM, 1 μM, 10 μM and 100 μM, and incubated on a hot plate set to 37° C. Selenoneine-free THY medium was used as the control. The collected eggs were transferred to the incubated selenoneine-containing TYH medium and cultured under shielding for 12 hours, 15 hours, 18 hours, 21 hours and 24 hours, after which they were observed under a stereomicroscope and the proportion of fragmented eggs was examined (FIG. 6). The numbers of cultured eggs in each selenoneine-containing medium were 10 nM: 107, 100 nM: 161, 1 μM: 155, 10 μM: 118, 100 μM: 85 and control: 83.
Culturing by incubation on a hot plate instead of a CO2 incubator produced stress in the eggs. […] The numbers of cultured eggs in each medium were 10 nM: 63, 100 nM: 66, 1 μM: 63, 10 μM: 71, 100 μM: 54 and control: 83.
as §2, with “with ergothioneine” for “with selenoneine”, “C. Ergothioneine-free” for “C. Selenoneine-free”, “(FIG. 7).” for “(FIG. 6). The numbers of cultured eggs in each selenoneine-containing medium were 10 nM: 107, 100 nM: 161, 1 μM: 155, 10 μM: 118, 100 μM: 85 and control: 83.”
Culturing by incubation on a hot plate instead of a CO2 incubator produced stress in the eggs.

Assay [5] has as its system mouse sperm. As to the kind of experiment: Sperm motility test (CASA). The format is cell-based, mouse (C57BL/6 J line). Particulars: 1 μL of 10 μM added to 100 μL TYH drop; 3 h and 6 h incubation; vs control. The protocol: A 100 μL drop of TYH medium was prepared in a plastic dish, and liquid paraffin was laid over it until the drop was completely covered. The plastic dish was then allowed to stand for 16 hours in an incubator set to 5% CO2, 37° C. The TYH medium drop on the plastic dish was used for a sperm motility test and fertilization test. A sperm mass harvested from the epididymis of a 8- to 12-week-old sexually matured male mouse (C57BL/6 J line) was transferred to a drop prepared in the TYH medium. It was then returned to the plastic dish in the incubator and allowed to stand for 1 hour. After standing for 1 hour, 1 μL of selenoneine (10 μM) prepared in Example 1 was added to a drop of sperm-containing fertilization medium (or not added for the control), and the mixture was allowed to stand in an incubator. After incubation for 3 hours, the sperm motility was measured using CASA, and the proportion of sperm was measured, dividing it into motile sperm and progressive sperm (FIGS. 2A and B). After incubation for 6 hours, the proportion of sperm was then measured with similar division based on sperm motility (VCL) (FIGS. 2C and D).

The subject of assay [6] is fertilized eggs. As to the kind of experiment: Fertilized egg fragmentation after treatment of eggs, in vitro fertilization. The format is cell-based, mouse (C57BL/6 J line). Particulars: eggs cultured with 100 nM; 24 h after sperm addition; vs control. As for the experimental part: Female mice (C57BL/6 J line: 8- to 12-week-old) were treated for superovulation by the following procedure, and the eggs were harvested.
1. Animal serotropin (PMSG, ASKA Pharmaceutical Co., Ltd.) and animal gonadotropin (hCG, ASKA Pharmaceutical Co., Ltd.) were dissolved in physiological saline to […]. 2. The mice were intraperitoneally administered PMSG at 0.1 mL(5 units)/mouse, and after 48 hours they were intraperitoneally administered hCG at 0.1 mL (5 units)/mouse. 3. After hCG administration, the cumulus cells and egg masses were taken through the fallopian tubes of the mice at 14 to 16 hours.
The cumulus cells and egg masses harvested from the fallopian tubes of the superovulated mice were transferred to a drop of 100 μL TYH medium that had been previously incubated in 5% CO2 at 37° C., and allowed to stand in the incubator.
The harvested eggs were cultured for 2 hours in TYH medium, and then the 1 μL selenoneine (10 μM) solution prepared in Example 1 was added to the TYH medium drop (or not added for the control), and further culturing was carried out for 2 hours with a final concentration of 100 nM selenoneine in the medium. […] After 24 hours had passed in the presence of selenoneine, the fertilization rate was measured and the numbers of normal 2-cell stage embryos and fragmented embryos were counted. […]

[7] abbreviates: 10 nM to 100 μM, culturing 3, 6 and 9 hours.
[8] abbreviates: 100 μM, after culturing for 9 hours, p<0.05.

As to `C[N+](C)(C)[C@@H](Cc1c[nH]c(=S)[nH]1)C(=O)[O-]` [ergothioneine], in the assay on eggs [1], the “reactive nitrogen species (RNS) in eggs” value was “no variation”, the “reactive oxygen species (ROS) in eggs” value is “increased significantly” and the superoxides in eggs result is reported as “No change”. In the assay on fertilized eggs [2] (washed), the fragmented embryos result was “reduced compared to the untreated control”. Besides, in the assay on fertilized eggs [2], the “proportion of 2-cell stage embryos, ergothioneine treatment versus selenoneine treatment” value is “No difference”. For the same compound, the “proportion of sperm which retained membranes” value in the assay with mouse sperm [3] (setting [7]) was “membrane-protecting effect”. Moreover, the “proportion of sperm which retained membranes” value with mouse sperm [3] (setting [8]) is “significantly protected”. In the assay on eggs [4] (10 nM to 10 μM in TYH medium), the egg fragmentation entry is “inhibition seen”. For the same compound, the egg fragmentation result with eggs [4] (1 μM in TYH medium, p<0.05) is listed as “significantly inhibited”.
Take `C[N+](C)(C)[C@@H](Cc1cnc([Se-])[nH]1)C(=O)O` [selenoneine]: in the assay with eggs [1], the “reactive nitrogen species (RNS) in eggs” value is listed as “significant reduction”, the “reactive oxygen species (ROS) in eggs” value was “increased significantly” and the superoxides in eggs entry is on record as “No change”. Besides, the “sperm motility (proportion of motile sperm and progressive sperm)” value in the assay with mouse sperm [5] is given as “No effect on sperm motility”. Also, in the assay with fertilized eggs [6], the fragmented embryos entry was “no fragmented embryos” and the “proportion of 2-cell stage embryos” value is recorded as “no difference”. In the assay with fertilized eggs [2] (washed, vs control), the “proportion of 2-cell stage embryos” value was “no difference”. Further, the fragmented embryos entry in the assay on fertilized eggs [2] (washed) is given as “No fragmented embryos”. The “proportion of sperm which retained membranes” value with mouse sperm [3] (setting [7]) is reported as “membrane-protecting effect”. In addition, the “proportion of sperm which retained membranes” value in the assay on mouse sperm [3] (setting [8]) is recorded as “significantly protected”. Besides, in the assay with eggs [4] (100 nM, 1 μM and 10 μM in TYH medium, p<0.05), the “degree of egg fragmentation” value was “significantly inhibited”.
